Experiment [1] deals with T1, gp43exo− (bacteriophage T4 DNA polymerase) (Enterobacteria phage T4, UniProt P04415, D219A). Briefly: biochemical.
The target of experiment [2] is T1, gp43exo− (bacteriophage T4 DNA polymerase). It counts as biochemical.
Experiment [3] shares this target. As to conditions: cited from earlier work; for kpol / Kd: opposite an abasic site, previously determined values (Table 7 footnotes d, e, f not given); for Kd: read-out: KD.
The target is the same in experiment [4]. As to conditions: cited from earlier work.
Experiment [5] shares this target. In words: biochemical. The experiment is classed as biochemical.
Experiment [6] has the same target. The experiment is classed as biochemical. As to conditions: 500 μM analogue; 10 μM dNTPs; unmodified 13/20-mer.
The target is the same in experiment [7]. In words: biochemical. It counts as biochemical. The settings on record: 500 μM dNTPs.
Experiment [8] has the same target. Briefly: biochemical. As to conditions: for kpol: pseudo-first-order conditions.

Several values for one entry are separate records, joined by “and”; a condition that tells them apart may be missing. Equal values may be shown once. Read-outs that look alike come from different tables or passages of the source.

T1 sequence (P04415 whole entry D219A, looked up): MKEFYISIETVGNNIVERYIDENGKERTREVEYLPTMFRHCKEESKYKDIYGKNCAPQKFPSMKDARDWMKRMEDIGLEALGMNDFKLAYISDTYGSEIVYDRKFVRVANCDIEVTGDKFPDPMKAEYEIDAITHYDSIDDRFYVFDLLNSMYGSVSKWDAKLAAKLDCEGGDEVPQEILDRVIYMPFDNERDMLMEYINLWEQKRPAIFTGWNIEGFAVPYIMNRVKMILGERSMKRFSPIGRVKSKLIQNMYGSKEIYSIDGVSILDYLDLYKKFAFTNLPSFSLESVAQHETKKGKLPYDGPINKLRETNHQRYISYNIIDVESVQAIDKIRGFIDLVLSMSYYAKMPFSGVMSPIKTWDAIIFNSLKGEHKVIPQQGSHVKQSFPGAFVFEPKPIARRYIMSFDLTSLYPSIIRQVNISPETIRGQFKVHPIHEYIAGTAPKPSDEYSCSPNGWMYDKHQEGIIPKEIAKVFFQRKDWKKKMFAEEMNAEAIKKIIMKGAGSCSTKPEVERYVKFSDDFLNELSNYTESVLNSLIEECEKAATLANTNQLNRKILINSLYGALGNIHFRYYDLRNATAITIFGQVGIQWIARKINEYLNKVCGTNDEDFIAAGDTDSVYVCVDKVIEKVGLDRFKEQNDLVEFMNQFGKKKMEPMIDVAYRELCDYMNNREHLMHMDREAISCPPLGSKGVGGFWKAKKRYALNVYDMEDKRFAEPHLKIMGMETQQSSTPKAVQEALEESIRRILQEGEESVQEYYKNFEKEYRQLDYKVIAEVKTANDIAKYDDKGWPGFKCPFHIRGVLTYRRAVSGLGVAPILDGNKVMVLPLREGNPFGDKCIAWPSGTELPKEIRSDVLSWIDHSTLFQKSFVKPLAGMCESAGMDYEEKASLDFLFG

`Nc1nc(N)c2ncn([C@H]3C[C@H](O)[C@@H](COP(=O)(O)OP(=O)(O)OP(=O)(O)O)O3)c2n1` [2,6-DAPTP]: in experiment [1], the kpol is 2.4 s⁻¹ and 2.4 ± 0.3 s⁻¹; the “kpol higher/faster than that for dATP” value came to 16 fold. Further, in experiment [1] (read-out: KD), the Kd is 900 µM. Moreover, the kext in experiment [2] is 0.016 ± 0.003 s⁻¹.
On to `O=c1[nH]cnc2c1ncn2[C@H]1C[C@H](O)[C@@H](COP(=O)(O)OP(=O)(O)OP(=O)(O)O)O1` [dITP], for which, in experiment [1], the kpol amounted to 0.044 ± 0.003 s⁻¹ and the “kpol lower than that of dATP” value stood at 3.5 fold. Besides, in experiment [1] (read-out: KD), the Kd was found to be 103 ± 14 µM. Further, the “extension beyond dXMP:abasic site mispair” value in experiment [2] is reported as “lack of extension”.
Take `Nc1nc2c(ncn2[C@H]2C[C@H](O)[C@@H](COP(=O)(O)OP(=O)(O)OP(=O)(O)O)O2)c(=O)[nH]1` [dGTP]: in experiment [2], the kext was found to be 0.005 ± 0.001 s⁻¹. Also, in experiment [3], the kpol is 0.023 ± 0.005 s⁻¹ and the Kd is 130 µM.
With `CNc1nc2c(ncn2[C@H]2C[C@H](O)[C@@H](COP(=O)(O)OP(=O)(O)OP(=O)(O)O)O2)c(=O)[nH]1` [N^2-methyl dGTP], in experiment [1], the kpol is 0.12 and 0.12 ± 0.02 s^−1; the “kpol higher/faster than that for dGTP” value is recorded as ~5 fold. For the same molecule, the Kd in experiment [1] (read-out: KD) was 245 µM.
On to `CNc1ncnc2c1ncn2[C@H]1C[C@H](O)[C@@H](COP(=O)(O)OP(=O)(O)OP(=O)(O)O)O1` [N^6-methyl dATP], for which, in experiment [1], the kpol is 5.6+/−0.6 and 5.3 and 5.6 ± 0.6 s^−1; the “kpol higher/faster than that for dATP” value is on record as 40 fold. This molecule returned a Kd in experiment [1] (KD) of 190 µM. This molecule returned a kext in experiment [2] of 0.71 ± 0.04 s⁻¹.
With `Nc1ncnc2c1[nH]c(=O)n2[C@H]1C[C@H](O)[C@@H](COP(=O)(O)OP(=O)(O)OP(=O)(O)O)O1` [8-Oxo dATP], the “incorporation opposite an abasic site” value in experiment [1] was “no incorporation was observed”.
On to `Nc1ncnc2c1ncn2[C@H]1C[C@H](O)[C@@H](COP(=O)(O)OP(=O)(O)OP(=O)(O)O)O1` [dATP], for which, in experiment [4], the kpol result is given as “≈ 0.15 s^−1” and the kpol/KD is 4300 M⁻¹ s⁻¹. In experiment [2], the kext was found to be 0.25 ± 0.01 s⁻¹. In experiment [3], the “overall catalytic efficiency opposite an abasic site greater than dGTP” value is ~35 fold; the kpol is 0.15 s⁻¹ and 0.15 ± 0.01 s⁻¹; the Kd was 35 µM.
In the case of `Nc1ncnc2c1ccn2[C@H]1C[C@H](O)[C@@H](COP(=O)(O)OP(=O)(O)OP(=O)(O)O)O1` [7-Deaza dATP], in experiment [1], the “catalytic efficiency higher than that for 7-deaza dGTP” value is > 10 fold; the kpol is 1.4 and 1.4 ± 0.1 s^−1; the “kpol higher/faster than that for dATP” value is reported as ~10 fold. Further, in experiment [1] (KD), the Kd is 200 µM and 197 µM. Besides, in experiment [2], the kext turned out to be 0.32 ± 0.03 s⁻¹.
Regarding `O=P(O)(O)OP(=O)(O)OP(=O)(O)OC[C@H]1O[C@@H](n2ccc3cc(C4=CCCCC4)ccc32)C[C@@H]1O` [5-CE-ITP], in experiment [3], the Kd was ~10 µM.
For the molecule `Nc1ccc2[nH]ccc2c1` [5-amino-indole], the “Catalytic efficiency (kpol/KD)” value in experiment [5] was found to be 500 M⁻¹ s⁻¹.
As for `Nc1nc2c(ccn2[C@H]2C[C@H](O)[C@@H](COP(=O)(O)OP(=O)(O)OP(=O)(O)O)O2)c(=O)[nH]1` [7-Deaza dGTP], in experiment [1], the kpol was 0.11 and 0.11 ± 0.02 s^−1; the “kpol higher/faster than that for dGTP” value is ~5 fold. In experiment [1] (KD), this molecule gave a Kd of 215 µM. In addition, in experiment [2], the “extension beyond dXMP:abasic site mispair” value is on record as “lack of extension”.
As to `Nc1ncnc2nc[nH]c12` [adenine, reference compound], the “Catalytic efficiency (kpol/KD)” value in experiment [4] was 1500 M⁻¹ s⁻¹.
With `Nc1ccc2c(ccn2[C@H]2C[C@H](O)[C@@H](COP(=O)(O)OP(=O)(O)OP(=O)(O)O)O2)c1` [5-AITP, 5-Amino-Indole-2′-Deoxyribofuranoside 5″-Triphosphate], the kpol was found to be 0.17 ± 0.01 s⁻¹ in experiment [5], 0.21 ± 0.01 s⁻¹ in experiment [8] (Template A) and 0.071 ± 0.003 s⁻¹ in experiment [8] (Template T). For the same molecule, the kpol/KD in experiment [5] was 700 M⁻¹ s⁻¹; in experiment [8] (Template A), 0.46 × 10^3 M^−1S^−1; in experiment [8] (Template T), 0.53 × 10^3 M^−1S^−1. Also, the “inhibition of normal DNA synthesis” value in experiment [6] was “do not inhibit normal DNA synthesis”. In addition, the entries for the “inhibition of replication beyond an abasic site” value in experiment [7] (20 μM analogue) and in experiment [7] (350 μM analogue) were “inhibition is not observed” and “no effect on the kinetics of elongation”, respectively.
On to `O=P(O)(O)OP(=O)(O)OP(=O)(O)OC[C@H]1O[C@@H](n2ccc3cc(F)ccc32)C[C@@H]1O` [5-FITP, 5-Fluoro-indole-2′-deoxyribofuranoside 5′-Triphosphate], for which the results for the kpol in experiment [5], in experiment [8] (Template A) and in experiment [8] (Template T) were 0.30 ± 0.03 s⁻¹, 0.11 ± 0.06 s⁻¹ and 0.040 ± 0.003 s⁻¹, respectively. Further, the kpol/KD in experiment [5] is 2000 M⁻¹ s⁻¹; in experiment [8] (Template A) it was 0.6 × 10^3 M^−1S^−1; in experiment [8] (Template T) it was 0.29 × 10^3 M^−1S^−1. For the same molecule, the “inhibition of normal DNA synthesis” value in experiment [6] was “do not inhibit normal DNA synthesis”. The “inhibition of replication beyond an abasic site” value is on record as “inhibition is not observed” in experiment [7] (20 μM analogue) and “no effect on the kinetics of elongation” in experiment [7] (350 μM analogue).
Turning to `O=P(O)(O)OP(=O)(O)OP(=O)(O)OC[C@H]1O[C@@H](n2ccc3ccccc32)C[C@@H]1O` [IndTP, reference compound], the “inhibition of normal DNA synthesis” value in experiment [6] was “do not inhibit normal DNA synthesis”. Also, in experiment [4], the kpol was 0.28 ± 0.07 s⁻¹. In addition, the kpol/KD in experiment [4] is 1900 M⁻¹ s⁻¹. In experiment [4] (read-out: KD), the Kd is 145 ± 10 µM. Moreover, the “inhibition of replication beyond an abasic site” value in experiment [7] (20 μM analogue) was “inhibition is not observed”; in experiment [7] (350 μM analogue) it was “no effect on the kinetics of elongation”.
As for `O=[N+]([O-])c1ccc2[nH]ccc2c1` [5-nitro-indole], the “Catalytic efficiency (kpol/KD)” value in experiment [4] is 7e+06 M⁻¹ s⁻¹.
For the molecule `Nc1nc(Cl)c2ncn([C@H]3C[C@H](O)[C@@H](COP(=O)(O)OP(=O)(O)OP(=O)(O)O)O3)c2n1` [6-Cl-2APTP], in experiment [1], the kpol was 0.12 and 0.12 ± 0.01 s^−1. Moreover, in experiment [1] (read-out: KD), the Kd came to 71 ± 20 µM. Further, in experiment [2], the “elongated slower compared to dATP, N^7-deaza dATP and N^6-methyl dATP” value is ~10 fold; the kext is 0.033 ± 0.004 s⁻¹.
Turning to `c1ccc(-c2ccc3[nH]ccc3c2)cc1` [5-phenyl-indole], the “Catalytic efficiency (kpol/KD)” value in experiment [5] is 3.8e+06 M⁻¹ s⁻¹.
Regarding `O=P(O)(O)OP(=O)(O)OP(=O)(O)OC[C@H]1O[C@@H](n2cnc3c(Cl)ncnc32)C[C@@H]1O` [6-Cl-dATP], in experiment [1], the kpol came to 0.28 ± 0.02 s⁻¹ and the “kpol higher/faster than that for dATP” value was 2 fold. For the same molecule, the Kd in experiment [1] (read-out: KD) stood at 83 ± 16 µM. The kext in experiment [2] turned out to be 0.031 ± 0.003 s⁻¹.
For the molecule `c1ccc2[nH]ccc2c1` [indole, reference compound], the “Catalytic efficiency (kpol/KD)” value in experiment [4] was 1900 M⁻¹ s⁻¹.
Consider `Fc1ccc2[nH]ccc2c1` [5-fluoro-indole], for which, in experiment [5], the “Catalytic efficiency (kpol/KD)” value was determined as 2000 M⁻¹ s⁻¹.
As to `COc1nc(N)nc2c1ncn2[C@H]1C[C@H](O)[C@@H](COP(=O)(O)OP(=O)(O)OP(=O)(O)O)O1` [O^6-methyl dGTP], in experiment [1], the kpol is 0.98 and 0.98 ± 0.08 s^−1; the “kpol higher/faster than that for dGTP” value turned out to be 40 fold. In addition, the Kd in experiment [1] (read-out: KD) is 180 µM and 181 µM. In experiment [2], the “increase in kext compared with dGTP” value was ~20 fold and the kext turned out to be 0.092 ± 0.009 s⁻¹.

By Kd is commonly meant the equilibrium constant for the complex coming apart.
